Read-outs that look alike come from different tables or passages of the source.
Tests used:
[1] = system: spontaneous motor function in mice; experiment: Inhibition of spontaneous motor function in mice, Winter and Flataker test (photoelectric method); assay type: in vivo; settings: Mus musculus
From the text: (§1) Thus, an inhibitory effect on spontaneous motor function in mice, a catalepsy-inducing power in rats, and antagonism towards certain apomorphine- and amphetamine-induced behavioural effects were investigated, in particular.
(§2) Regarding the spontaneous motor function in mice, an inhibitory effect of the inventive compounds was effectively observed and recorded by a photoelectric method, according to a technique similar to that of Winter and Flataker (J. Pharmacol. Exp. Ther. 1951, 101, 156-162) and by measurement of activity using an Animex apparatus.
(§3) The compounds were administered intraperitoneally or orally, respectively, 15 or 60 minutes before the recording according to the method adopted.
(§4) The values of the 50% inhibitory doses of motor function ID50 of the compounds are collected in the following table: […]

[2] = system: Apomorphine stereotypy; experiment: Antagonism of apomorphine stereotypy in rats (1.25 mg/kg IV, Janssen); assay type: in vivo; settings: Rattus norvegicus, sc, compound s.c. 60 minutes before apomorphine 1.25 mg/kg IV, read-out: ID50 S.C., Apomorphine stereotypy (1.25 mg/kg IV)
From the text: (§5) Apomorphine and amphetamine induce stereotyped movements in rats which are antagonized by neuroleptics. […]
(§6) These different experimental conditions made it possible to establish the doses which antagonize stereotypy by 50% (ID50), judged on the basis of the various components of the movements which were observed.

[3] = Acute toxicity in mice (LD50, Bliss' method); settings: mouse, in vivo
Description: Acute toxicity was studied in mice, the compounds being administered intravenously, subcutaneously, intraperitoneally and orally.
The doses causing the death of 50% of the animals (LD50) were determined by Bliss' method, giving the following results: […]

[4] = system: apomorphine-induced climbing behavior; experiment: Antagonism of apomorphine-induced climbing behavior in mice; assay type: in vivo; settings: Mus musculus, ip, compound i.p. 30 minutes before apomorphine 1 mg/kg s.c., read-out: ID50 I.P., apomorphine-induced climbing behavior
Description: Another test using apomorphine was applied, based on the observation of the climbing behavior which it induces in mice, this behavior being antagonized by neuroleptics, according to Puech (Eur. J. Pharmacol. 1978, 50, 291-300).
The compound was administered intraperitoneally 30 minutes before the apomorphine (1 mg/kg subcutaneously), and the antagonism was assessed 45 to 50 minutes after the administration of the compound.

[5] = system: spontaneous motor function in mice; experiment: Inhibition of spontaneous motor function in mice, Animex activity measurement test; assay type: in vivo; settings: Mus musculus
From the text: as §1, §2, §3, §4

[6] = system: dexamphetamine stereotypy; experiment: Antagonism of dexamphetamine stereotypy in rats (Janssen amphetamine test); assay type: in vivo; settings: Rattus norvegicus, sc, 1 h, compound s.c. simultaneously with dexamphetamine 10 mg/kg i.v., effect at 60 minutes, read-out: ID50 S.C., Janssen amphetamine test
Description: Apomorphine and amphetamine induce stereotyped movements in rats which are antagonized by neuroleptics. Different doses of apomorphine administered by different routes were applied to produce these movements. In the test using dexamphetamine, carried out according to the technique of Janssen (Arz. Forsch. 1961, 11, 932-938), 10 mg/kg of dexamphetamine were injected intravenously, the test product being injected simultaneously subcutaneously, and the effect being measured 60 minutes after these injections. These different experimental conditions made it possible to establish the doses which antagonize stereotypy by 50% (ID50), judged on the basis of the various components of the movements which were observed.

[7] = system: catalepsy in rats; experiment: Catalepsy in rats; assay type: in vivo; settings: Rattus norvegicus, sc, subcutaneously, at the peak of effect
Description: The catalepsy-inducing function of the compounds of the invention was studied in rats. Each of the compounds was administered subcutaneously, at increasing doses, to groups of 10 rats (1 group for each dose). […] The dose giving rise to catalepsy in 50% of the animals (ED50) was determined graphically, at the peak of effect.

[8] = system: Apomorphine stereotypy; experiment: Antagonism of apomorphine stereotypy in rats (0.5 mg/kg SC, derived from Puech); assay type: in vivo; settings: Rattus norvegicus, ip, compound i.p. 30 minutes before apomorphine 0.5 mg/kg SC, read-out: ID50 I.P., Apomorphine stereotypy (0.5 mg/kg SC)
From the text: as §5, §6

[9] = ip, read-out: ID50 i.p., Winter and Flataker test
[10] = po, read-out: ID50 p.o., Winter and Flataker test
[11] = ip, read-out: Lethal doses50 i.p.
[12] = iv, read-out: Lethal doses50 i.v.
[13] = po, orally, read-out: Lethal doses50 orally
[14] = sc, read-out: Lethal doses50 s.c.
[15] = ip, read-out: ID50 i.p., Animex activity measurement test
[16] = po, read-out: ID50 p.o., Animex activity measurement test

Compound	ED50 [1, 9] [mg/kg]	ED50 [1, 10] [mg/kg]	ED50 [2] [mg/kg]	LD50 [3, 11] [mg/kg]	LD50 [3, 12] [mg/kg]	LD50 [3, 13] [mg/kg]	LD50 [3, 14] [mg/kg]	ED50 [4] [mg/kg]	ED50 [5, 15] [mg/kg]	ED50 [5, 16] [mg/kg]	ED50 [6] [mg/kg]	ED50 [7] [mg/kg]	ED50 [8] [mg/kg]	mortality ([3]; sc, at 900 mg/kg, read-out: deaths of animals at 900 mg/kg s.c.) [%]
O=C(NCC1CCCN1CC1=CCCCC1)c1cc(Cl)cc2c1OCC2 (stereo not drawn) [Ex 14, N-(1-Cyclohexenylmethyl-2-pyrrolidinylmethyl)-5-chloro-2,3-dihydrobenzofuran-7-carboxamide]	2.1	27	0.29	69.6 to 83.3	24.8	350 to 354	412 to 434	0.27 to 0.29	1.7	25	0.12	2.7	0.31 to 0.41	
CNS(=O)(=O)c1cc2c(c(C(=O)NCC3CCCN3CC3=CCCCC3)c1)OC(C)C2 (stereo not drawn) [Ex 1, N-(1-Cyclohexenylmethyl-2-pyrrolidinylmethyl)-5-methylsulphamoyl-2-methyl-2,3-dihydrobenzofuran-7-carboxamide]	1.8	12.4 to 13.2	0.375	134 to 152	30.5 to 35.2	259 to 295	316 to 318	0.55 to 0.63	2.15 to 3.4	19.2 to 22.4	0.285	6.6	0.64 to 0.65	
O=C(NCC1CCCN1CC1=CCCCC1)c1cc(Cl)cc2c1OCCC2.O=C(O)/C=C/C(=O)O (stereo not drawn) [Ex 13, N-(1-Cyclohexenylmethyl-2-pyrrolidinylmethyl)-6-chlorochroman-8-carboxamide fumarate]	1.96	20.9	0.22	120		422 to 473		0.32 to 0.35	3	22.7	0.15	1.5	0.38 to 0.44	0
CCS(=O)(=O)c1cc2c(c(C(=O)NCC3CCCN3CC3CC3)c1)OC(C)C2.Cl (stereo not drawn) [Ex 9, N-(1-Cyclopropylmethyl-2-pyrrolidinylmethyl)-5-ethylsulphonyl-2-methyl-2,3-dihydrobenzofuran-7-carboxamide hydrochloride]	3.2	31.5	3.6	211 to 213	68.8 to 70.2	390 to 391	440 to 462	0.4 to 0.55	3	23.4	1.1	20.7	1.2 to 1.6	

Reference: patent US5006570A, “Dihydrobenzofuran- and chroman-carboxamide derivatives, processes for the preparation thereof and use thereof as neuroleptics” (Laboratoires Delagrange, priority 1986, dated 1991)
